Assay results published in paper PMC10788917 (Journal of Medicinal Chemistry, 2023).

Target: T1, HDAC8 (Homo sapiens, UniProt Q9BY41)
T1 construct: one additional N-terminal residue 'H' (His) (N)
T1 sequence (Q9BY41 1-377): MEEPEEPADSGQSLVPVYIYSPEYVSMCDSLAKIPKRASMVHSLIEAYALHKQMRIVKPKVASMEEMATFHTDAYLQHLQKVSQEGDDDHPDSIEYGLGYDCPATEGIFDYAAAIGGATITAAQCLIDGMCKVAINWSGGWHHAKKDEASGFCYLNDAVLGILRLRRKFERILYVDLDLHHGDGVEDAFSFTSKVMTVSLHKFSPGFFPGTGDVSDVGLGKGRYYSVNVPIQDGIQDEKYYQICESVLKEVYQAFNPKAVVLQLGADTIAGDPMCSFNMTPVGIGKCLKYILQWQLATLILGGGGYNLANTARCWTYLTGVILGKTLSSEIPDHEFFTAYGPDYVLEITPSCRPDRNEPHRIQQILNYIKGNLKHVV
Assay: Kinetic parameters of inactivation from time-dependent IC50
Type: biochemical
Details: HDAC8, inactivation constant
Method: Time-dependent IC50 values were obtained using the previously described enzyme activity assay after varying preincubation times.

Ki [µM]	Structure (SMILES)
0.8	C#Cc1ccc[n+](C)c1 [B6+]

Target: HDAC8 WT (Homo sapiens, UniProt Q9BY41)
Assay: Dilution/dialysis reversibility experiment
Type: biochemical
Details: 2000-fold dilution by overnight dialysis

reversibility of covalent binding	Structure (SMILES)
irreversible	C#Cc1ccc[n+](C)c1 [B6+]

System: THP-1 cells
Assay: CellTiter-Blue cell viability assay
Type: cell-based
Details: Homo sapiens, 72 h, Figure 7A, read-out: cell viability IC50, THP-1
Method: All cell lines were purchased from DSMZ (Braunschweig, Germany). The cell lines were regularly tested to exclude mycoplasma contamination and authenticated. […] Media were supplemented with 10% fetal calf serum (FCS), 10 units/mL penicillin, 10 μg/mL streptomycin, and 2 mM L-glutamine (all Gibco, Thermo Fisher Scientific).
To determine the IC50 of the selected compounds on the cell lines, the CellTiter-Blue cell viability assay (Promega) was performed. For this, cells were seeded in 96-well flat-bottom plates at a cell density of 10 000 cells/well. Cells were treated in triplicate with the compound of interest at various concentrations or with 10 μM Bortezomib (S1013; Selleck Chemicals, Houston, TX), as a positive control. […] Plates were measured using a GloMax plate reader (Promega), and IC50 values were determined by nonlinear regression using GraphPad Prism version 9.1.1 (GraphPad Software, Inc.), and the data are reported as mean values ± the standard error of the mean.

IC50 [µM]	Structure (SMILES)
> 500	C#Cc1cnccc1NC(=O)CC(=O)N1Cc2ccccc2C1 [compound 11, N-(3-Ethynylpyridin-4-yl)-3-(isoindolin-2-yl)-3-oxopropanamide]

System: HL60 cells
Assay: CellTiter-Blue cell viability assay
Type: cell-based
Details: Homo sapiens, HL-60; 72 h, Figure 7A
Method: All cell lines were purchased from DSMZ (Braunschweig, Germany). The cell lines were regularly tested to exclude mycoplasma contamination and authenticated. Cell lines were grown at 37 °C and 5% CO2 in RPMI 1640 medium (Gibco, Thermo Fisher Scientific). Media were supplemented with 10% fetal calf serum (FCS), 10 units/mL penicillin, 10 μg/mL streptomycin, and 2 mM L-glutamine (all Gibco, Thermo Fisher Scientific).
To determine the IC50 of the selected compounds on the cell lines, the CellTiter-Blue cell viability assay (Promega) was performed. For this, cells were seeded in 96-well flat-bottom plates at a cell density of 10 000 cells/well. Cells were treated in triplicate with the compound of interest at various concentrations or with 10 μM Bortezomib (S1013; Selleck Chemicals, Houston, TX), as a positive control. The cell viability of treated cell lines was measured using CellTiter-Blue after incubation for 72 h. Plates were measured using a GloMax plate reader (Promega), and IC50 values were determined by nonlinear regression using GraphPad Prism version 9.1.1 (GraphPad Software, Inc.), and the data are reported as mean values ± the standard error of the mean.

IC50 [µM]	Structure (SMILES)
> 500	C#Cc1cnccc1NC(=O)CC(=O)N1Cc2ccccc2C1 [compound 11, N-(3-Ethynylpyridin-4-yl)-3-(isoindolin-2-yl)-3-oxopropanamide]

System: SMC3 acetylation
Assay: Western blot (immunoblot) in OCI-AML3 cells
Type: cell-based
Details: 72 h treatment
Method: Cells (2 ×10^6) were seeded in 2 mL of medium in a six-well plate (Greiner) and treated with the desired concentration of the compounds. […] Protein concentrations were determined by the Bradford protein assay. Thirty micrograms of cell lysates per treatment was fractionated on sodium dodecyl sulfate–polyacrylamide gels and transferred to nitrocellulose membranes (Cytiva).

Structure (SMILES)	effect on HDAC8 levels
C#Cc1ccc[n+](C)c1 [B6+]	not influencing HDAC8 levels

System: GSH (glutathione)
Assay: physchem
Details: PBS buffer with 5 mM glutathione (GSH), pH 7.4
Method: The AUC (area under the curve) values were determined via integration of HPLC or MS chromatograms and then corrected with the internal standard. The fragments’ AUC values were subjected to ordinary least-squares (OLS) linear regression, and to compute the important parameters (kinetic rate constant and half-life time), an Excel sheet was applied. The data are expressed as means of duplicate determinations. The kinetic rate constant for the degradation and corrected GSH reactivity were calculated as follows. The reaction half-life for pseudo-first-order reactions (t1/2) is ln 2/k, where k is the reaction rate. In the case of competing reactions (reaction with GSH and degradation), the apparent reaction rate is kapp = kdeg + kGSH. When half-lives are measured experimentally, t1/2(app) = ln 2/(kapp) = ln 2/(kdeg + kGSH). In our case, the corrected kdeg and kapp (regarding blank and GSH-containing samples, respectively) can be calculated by linear regression of the measured kinetic data points. The corrected kGSH is calculated as kapp – kdeg, and finally, the half-life is determined using the equation t1/2 = ln 2/k.

half-life at 250 μM [h]	Structure (SMILES)
> 48	Clc1c[nH]cn1 [J1]
> 48	Brc1c[nH]cn1 [J2]
> 48	Ic1c[nH]cn1 [J3]
> 48	Brc1ccn[nH]1 [K2]
> 48	Ic1ccn[nH]1 [K3]
> 48	Clc1cn[nH]c1 [L1]
> 48	Brc1cn[nH]c1 [L2]
> 48	Ic1cn[nH]c1 [L3]
0.23	Ic1ncco1 [N3]
> 48	Brc1cncs1 [Q2]
> 48	Brc1nccs1 [R2]

The remaining lines, values behind:

Structure (SMILES)	half-life at 250 μM [h]
Clc1ncc[nH]1 [H1]	> 48
Brc1ncc[nH]1 [H2]	> 48
Ic1ncc[nH]1 [H3]	0.16

Same assay, conditions: buffer, pH 7.4

Structure (SMILES)	half-life at 250 μM [h]
N#Cc1ccccn1 [A4]	> 48
Cn1cc[n+](C)c1C#N [H4+]	> 48
